Data taken from US20220168394A1, “METHODS OF INDUCING OR RESTORING IMMUNE TOLERANCE” (INSERM (Institut National de la Santé et de la Recherche …, priority 2019, published 2022).
Read-outs that look alike come from different tables or passages of the source.

What was measured:
[1] = system: Scurfy mice; assay: Survival of Scurfy mice; assay type: in vivo
Protocol: (§1) Scurfy phenotype was obtained by backcrossing on B6. 129S7-Rag1tm1Mom/J background, allowing generation of homozygous XSf/XSfRag1−/− female. Crossing of these females with WT C57BL/6J mice result in the birth only of diseased XSf/Y.Rag1−/+male.
(§2) First, scurfy mice were treated with an immunosuppressor: Temsirolimus (LC laboratories, Woburn, USA) was injected S.C at the dose of 2 mg/kg at day 8 and day 10 after birth. This treatment was continued twice a week in some experiment. Anti-CD3 Fab'2 (clone 145-2C11, BioXCell, West Lebanon, USA) was injected S.C at 20 μg/day during 5 days at day 8 after birth. Cyclophosphamide (European Pharmacopoeia (EP) Reference Standard, Merck KGaA, Darmstadt, Germany) was injected I.P. at 50, 100, or 150 mg/kg 10 days after birth. At day 10 or day 14, CD4^+CD25^+CD45.1^+cells (containing putative Tregs) or engineered CD4^+T cells (Foxp3.LNGFR or LNGFR) from Scurfy mice were injected at 0.5×10^6, 0.75×10^6 or 1×10^6 of cells respectively via I.P injections. […] In indicated experiments, together with cells, Proleukin (human IL-2, aldesleukine, Novartis) was injected at 1.000 UI/g via I.P and during 5 days then once a week.
Values are represented as means ±SD, unless stated otherwise. GraphPad Prism 6.0 was used for all statistical analyses. P value was calculated with a confidence interval of 95% to indicate the statistical significance between groups. Statistical test included non-parametric Mann-Whitney test, Fischer exact test or two ways ANOVA depending on the dataset. A P value <0.05 was considered statistically significant. Statistically significant differences between groups are noted in figures with asterisks (*p<0.05, **p<0.01, ***p<0.001, ****p<0.0001). Correlations were performed with a non-parametric Spearman correlation. Survival was analyzed with Log-rank test (Mantel-Cox).
(§3) As shown in FIGS. 1-7, the inventors compared 7 different experimental protocols to identify the one allowing to test the efficacy of Treg to treat Scurfy autoimmune syndrome. Tregs were sorted on the basis of CD4 and CD25 expression from CD45.1 congenic B6 mice and injected at a dose of 5×10^5 intra-peritoneally at day 10 or 14. The criteria was the scurfy score measured every 3 to 4 days from birth and when signs of efficiency evidenced improved scores for mice transplanted with Tregs, survival was followed. Three drugs were tested as conditioning regimens: Temsirolimus, subcutaneously injected at a dose of 2 mg/kg daily from day 4 to day 28 or from day 4 to day 9 (post-birth), anti-CD3 Fab'2, subcutaneously injected at a dose of 20 micrograms/recipient, daily from day 8 to day 12, Cyclophosphamide at 3 different doses (50, 100 and 150 mg/kg) injected at day 10.

[2] = system: Scurfy mice
Protocol: as §1, §2, §3

[3] = system: CD4+ T cells; assay: T cell depletion after immunosuppressive drug; parameters: species or system mice; details: mouse, in vivo
Protocol: as §2

[4] = system: Scurfy mice; remark: listed apart in the source
Protocol: as §2, §3

[5] = first series, Cy 50 mg/kg conditioned Scurfy mice

Compound	life expectancy ([1]; Temsirolimus twice a week starting at day 8)	scurfy score ([2]; Temsirolimus twice a week starting at disease onset (day 8), drug alone)	improvement of Scurfy score after the infusion of Tregs ([2]; drug used as conditioning regimen, 5×10^5 Tregs i.p. at day 10 or 14)	mean survival [1, 5]	effect on auto-immunity in Scurfy settings ([2]; low dose IL-2, 1.000 UI/g)	CD4 T cells nadir (time after injection) [3]	T cells depletion across doses [3]	cell count normalized (time after injection) [3]	general toxicity ([4]; 50 mg/kg at day 10)	general toxicity revealed by the health status of the mice ([4]; 100 and 150 mg/kg at day 10)	toxicity observed ([4]; Cy 50, 100 or 150 at day 10, correlated with dose)	toxicities in young animals ([4]; even low dose of Cy)	delay of the death of scurfy mice ([1]; cyclophosphamide at all doses (50, 100 and 150 mg/kg) at day 10, no cells)	survival following Cy injection ([1]; increased from 30 (untreated mice) to 90 days, p=0.01)	mean survival ([1]; second series, 90 days of follow-up)	scurfy score ([2]; mouse, in vivo)
CO[C@H]1C[C@@H]2CC[C@@H](C)[C@@](O)(O2)C(=O)C(=O)N2CCCC[C@H]2C(=O)O[C@H]([C@H](C)C[C@@H]2CC[C@@H](OC(=O)C(C)(CO)CO)[C@H](OC)C2)CC(=O)[C@H](C)/C=C(\C)[C@@H](O)[C@@H](OC)C(=O)[C@H](C)C[C@H](C)/C=C/C=C/C=C/1C [Temsirolimus]	doubling of life expectancy	reduction of Scurfy score	did not allow to reveal any improvement	–	–	–	–	–	–	–	–	–	–	–	–	–
IL-2: Proleukin (human IL-2, aldesleukine, Novartis)	–	–	–	51 days	did not worsen auto-immunity	–	–	–	–	–	–	–	–	–	–	–
O.O=P1(N(CCCl)CCCl)NCCCO1 (centres unmarked) [Cyclophosphamide, 2-[bis(2-chloroethyl)amino]-tetrahydro-2H-1,3,2-oxazaphosphorine-2-oxide monohydrate]	–	–	–	39 days	–	4 days	not different with the three doses	10 days	absent	general toxicity	growth retardation and a transient alopecia	alopecia and growth retardation	more than 60 days	90 days	47 days	more stable scurfy score
